Reference: paper PMC5760527, “Connexin 43 Hemichannel as a Novel Mediator of Sterile and Infectious Inflammatory Diseases” (Scientific Reports, 2018)

Key:
[1] = tested on: hepatic I/R injury, C57BL/6 mice; test: Hepatic ischemia/reperfusion injury; type: in vivo, Male C57BL/6 mice; details: P5 10.0 mg/kg i.v. at onset of reperfusion; 60 min ischemia; 24 h after onset of ischemia; P < 0.05 versus saline (I/R)
Experimental: Male C57BL/6 mice (20–25 g) were subjected to hepatic ischemia/reperfusion by temporally clamping the hepatic artery and portal vein for 60 min, which typically produced ischemia in 70% of the liver. At the beginning of the reperfusion, 0.2 ml saline, P5 (10.0 mg/kg BW) was injected via the internal jugular vein. At 24 h after the onset of ischemia, animals were euthanized to harvest blood to measure serum levels of hepatic injury markers such as alanine aminotransferase (ALT) and aspartate aminotransferase (AST) using commercial kits.

[2] = tested on: gap junctional intercellular communication, NIH 3T3 fibroblasts; test: Scrape-loading assay of GJ intercellular communication; type: cell-based; details: LY (444 Da) and rhodamine dextran (10,000 Da), overnight or 20 min incubation, 2 min diffusion
Experimental: We used NIH 3T3 fibroblasts to investigate the effects of Cx43 mimetic peptides on GJ permeability employing a technique termed scrape-loading. After overnight or 20 min incubation with or without Cx43 mimetic peptides in DMEM, EGTA was added to DMEM to deplete free calcium. Immediately afterwards, 1% LY and 1% rhodamine dextran was added into PBS, followed by scraping the cell monolayer with a pipette tip loading tracers into cytoplasmic compartment of scraped cells. Tracers were allowed to diffuse to adjacent cells for 2 min before immobilized by PF fixation for 10 minutes. Cells were subsequently extensively washed in PBS three times and coversliped to allow examination of LY diffusion.

[3] = tested on: LPS-induced production of nitric oxide; test: Nitric oxide production; type: cell-based; details: data not shown
[4] = tested on: LPS-induced ATP release, RAW 264.7 cells; test: ATP release assay; type: cell-based, murine; details: P5 20 µM; LPS 1 µg/ml; RAW 264.7, serum-free DMEM; luciferin:luciferase; P < 0.05 versus +LPS
Experimental: In addition to the LY dye uptake, we also employed the ATP release assay to measure the Cx43 hemichannel activities. The current gold standard for ATP quantification relied on luciferin:luciferase chemistry where the enzyme luciferase catalyzed the oxidation of ATP and luciferin ultimately resulting in the generation of a photon which could be quantified by luminometry using a luminometer plate reader (Synergy H1 Hybrid, Biotek, Winooski, U.S.A.) and the amount of ATP was calculated from standard curve. Briefly, RAW 264.7 cells were cultured in serum-free DMEM medium, and stimulated with LPS (1 µg/ml) in the absence or presence of Cx43 mimetic peptide (P5, 20 µM). The cell-conditioned culture medium was collected and subjected to ATP measurement. We used the Molecular Probes® ATP Determination Kit (Cat. # A22066, Life Technologies), which was based on luciferase’s absolute requirement for ATP in producing light (emission maximum ~560 nm at pH 7.8), to measure the extracellular ATP levels in LPS-stimulated RAW 264.7 cells.

[5] = tested on: LPS-induced Cx43 upregulation, macrophages; test: LPS-induced Cx43 upregulation in presence of P5; type: cell-based; details: macrophage cultures; data not shown
Experimental: The cellular levels of Cx43 and phosphor-PKR were determined by Western blotting analysis using an affinity-purified rabbit anti-Cx43 or anti-phospho-PKR (Thr^451) IgGs as previously described[9],[25],[53]. The levels of HMGB1 in the culture medium were determined by Western blotting analysis as described previously. The level of β-actin was used as a reference of total cellular proteins. Briefly, an equal volume of culture medium (conditioned by identical macrophage cell numbers) was harvested, and protein content was concentrated by ultrafiltration (with a molecular weight cutoff of 10.0 kDa), and then normalized to the same volume with a sample buffer. Proteins in equal sample volume were resolved on sodium dodecyl sulfate (SDS)-polyacrylamide gels, and transferred to polyvinylidene difluoride (PVDF) membranes. After blocking with 5% nonfat milk, the membrane was incubated with respective antibodies (anti-Cx43, 1:1000; anti-phospho-PKR, 1:1000; anti-HMGB1, 1:1,000; anti-β-actin. 1:5,000) overnight. Subsequently, the membrane was incubated with the appropriate secondary antibody, and the immunoreactive bands were visualized by chemiluminescence techniques.

[6] = tested on: macrophage Cx43 hemichannel activities, RAW 264.7 cells; test: Lucifer Yellow dye uptake, hemichannel permeability, calcium-depleted; type: cell-based, murine; details: P5 20 μM, LPS 0.5 μg/ml, 16 h, LY 15 min, P < 0.05 versus +LPS
Text: Because connexon is the structural unit for both hemichannel (1 connexon) and gap junction (2 connexons from opposing cells), which are both permeable to similar molecular weight molecules, such as the Lucifer yellow (LY). Thus, the LY dye uptake could be used to determine the channel permeability of both hemichannel (as indicated by the rate of LY entry into the cells) and gap junction channels (as judged by the distance of intercellular LY diffusion). The LY dye uptake assay relied on the ability of this dye present in the extracellular milieu to cross the plasma membrane and became concentrated inside of the cell, which could be quantified by fluorescence microscopy. To determine the effects of Cx43 mimetic peptides on hemichannel permeability, RAW 264.7 cells were subjected to LPS stimulation (0.5 µg/ml, 16 h) before replacing the medium with fresh DMEM containing various Cx43 mimetic peptides, GAP26 (100 µM), TAT-GAP19 (200 µM) or P5 (20 µM). Following a brief incubation (15 min), EGTA (1 mM) was added to deplete free calcium prior to the addition of LY dye (1%). Fifteen min later, cells were fixed with 2% paraformaldehyde, and the number of LY-positive cells was counted. The ratio of LY-positive cells vs. total cell counts (DAPI staining) was used as the measurement of hemichannel permeability.

## ENVCYD [P5, cysteine-containing Cx43 EL1 mimetic hexamer peptide, P5 (ENVCYD)]
[1]
  serum alanine aminotransferase (ALT): significant reduction of serum levels
  serum aspartate aminotransferase (AST): significant reduction of serum levels
  systemic release of LDH: significantly attenuated
[2]
  gap junctional transfer of LY / RD immobility: no obvious difference in the LY diffusion or RD immobility patterns
[3]
  LPS-induced production of nitric oxide: did not affect the LPS-induced production of nitric oxide
[4]
  LPS-induced ATP release: significantly attenuated the LPS-induced ATP release
[5]
  LPS-induced Cx43 upregulation: did not affect the LPS-induced Cx43 upregulation
[6]
  effect on endotoxin-induced hemichannel activities (LY dye uptake): significantly inhibited the endotoxin-induced elevation of hemichannel activities
